Entries after “also recorded” stand apart in the source; their conditions may differ.
Assays:
[1] = 10 mg cilnidipine, healthy volunteers, single oral dose, cited from earlier work
participants with SSc-RP = test: Safety: adverse events and withdrawals, Phase 2a study Part A; type: in vivo; conditions: for overall adverse event rate: all patients who received any dose of cilnidipine (n=17)
Excerpt: • Incidence of treatment emergent adverse events (AEs) and serious adverse events (SAEs), including clinically significant vital signs. For Part A safety will be assessed from the time of randomization until 7 days following the last protocol dose. For Part B, participants will be followed for 28 days from the last study dose. • Serious adverse events will be monitored by a DSMB (Part A) and Drug Safety Officer (Part B) on an ongoing basis throughout the study. • Adverse events will be coded using the MedDRA and summarized by SOC, PT, and treatment group.
Severity of AEs will be graded by the Investigator as one of: • Mild (Grade 1): A type of AE that is usually transient and may require only minimal treatment or therapeutic intervention.
Adverse events will be coded using the most current version of the MedDRA® Version 22.0 or higher. The analysis of AEs will be based on the concept of treatment emergent AEs. Treatment emergent AEs will be tabulated by treatment group and will include the number of participants for whom the event occurred, the severity, and relationship to study drug. Treatment emergent AEs (TEAEs) leading to discontinuation and SAEs with onset after the start of study drug will also be summarized. All AEs and SAEs (including those with onset or worsening before the start of study drug) through the end of the study will be listed.

Nav 1.7 sodium channel = Nav 1.7 sodium channel (Homo sapiens, UniProt Q15858); conditions: 20 mg dose of cilnidipine; cited from earlier work
[2] = given orally; cited from earlier work
[3] = oral dosing; cited from earlier work

Sequence of Nav 1.7 sodium channel (Q15858 whole entry): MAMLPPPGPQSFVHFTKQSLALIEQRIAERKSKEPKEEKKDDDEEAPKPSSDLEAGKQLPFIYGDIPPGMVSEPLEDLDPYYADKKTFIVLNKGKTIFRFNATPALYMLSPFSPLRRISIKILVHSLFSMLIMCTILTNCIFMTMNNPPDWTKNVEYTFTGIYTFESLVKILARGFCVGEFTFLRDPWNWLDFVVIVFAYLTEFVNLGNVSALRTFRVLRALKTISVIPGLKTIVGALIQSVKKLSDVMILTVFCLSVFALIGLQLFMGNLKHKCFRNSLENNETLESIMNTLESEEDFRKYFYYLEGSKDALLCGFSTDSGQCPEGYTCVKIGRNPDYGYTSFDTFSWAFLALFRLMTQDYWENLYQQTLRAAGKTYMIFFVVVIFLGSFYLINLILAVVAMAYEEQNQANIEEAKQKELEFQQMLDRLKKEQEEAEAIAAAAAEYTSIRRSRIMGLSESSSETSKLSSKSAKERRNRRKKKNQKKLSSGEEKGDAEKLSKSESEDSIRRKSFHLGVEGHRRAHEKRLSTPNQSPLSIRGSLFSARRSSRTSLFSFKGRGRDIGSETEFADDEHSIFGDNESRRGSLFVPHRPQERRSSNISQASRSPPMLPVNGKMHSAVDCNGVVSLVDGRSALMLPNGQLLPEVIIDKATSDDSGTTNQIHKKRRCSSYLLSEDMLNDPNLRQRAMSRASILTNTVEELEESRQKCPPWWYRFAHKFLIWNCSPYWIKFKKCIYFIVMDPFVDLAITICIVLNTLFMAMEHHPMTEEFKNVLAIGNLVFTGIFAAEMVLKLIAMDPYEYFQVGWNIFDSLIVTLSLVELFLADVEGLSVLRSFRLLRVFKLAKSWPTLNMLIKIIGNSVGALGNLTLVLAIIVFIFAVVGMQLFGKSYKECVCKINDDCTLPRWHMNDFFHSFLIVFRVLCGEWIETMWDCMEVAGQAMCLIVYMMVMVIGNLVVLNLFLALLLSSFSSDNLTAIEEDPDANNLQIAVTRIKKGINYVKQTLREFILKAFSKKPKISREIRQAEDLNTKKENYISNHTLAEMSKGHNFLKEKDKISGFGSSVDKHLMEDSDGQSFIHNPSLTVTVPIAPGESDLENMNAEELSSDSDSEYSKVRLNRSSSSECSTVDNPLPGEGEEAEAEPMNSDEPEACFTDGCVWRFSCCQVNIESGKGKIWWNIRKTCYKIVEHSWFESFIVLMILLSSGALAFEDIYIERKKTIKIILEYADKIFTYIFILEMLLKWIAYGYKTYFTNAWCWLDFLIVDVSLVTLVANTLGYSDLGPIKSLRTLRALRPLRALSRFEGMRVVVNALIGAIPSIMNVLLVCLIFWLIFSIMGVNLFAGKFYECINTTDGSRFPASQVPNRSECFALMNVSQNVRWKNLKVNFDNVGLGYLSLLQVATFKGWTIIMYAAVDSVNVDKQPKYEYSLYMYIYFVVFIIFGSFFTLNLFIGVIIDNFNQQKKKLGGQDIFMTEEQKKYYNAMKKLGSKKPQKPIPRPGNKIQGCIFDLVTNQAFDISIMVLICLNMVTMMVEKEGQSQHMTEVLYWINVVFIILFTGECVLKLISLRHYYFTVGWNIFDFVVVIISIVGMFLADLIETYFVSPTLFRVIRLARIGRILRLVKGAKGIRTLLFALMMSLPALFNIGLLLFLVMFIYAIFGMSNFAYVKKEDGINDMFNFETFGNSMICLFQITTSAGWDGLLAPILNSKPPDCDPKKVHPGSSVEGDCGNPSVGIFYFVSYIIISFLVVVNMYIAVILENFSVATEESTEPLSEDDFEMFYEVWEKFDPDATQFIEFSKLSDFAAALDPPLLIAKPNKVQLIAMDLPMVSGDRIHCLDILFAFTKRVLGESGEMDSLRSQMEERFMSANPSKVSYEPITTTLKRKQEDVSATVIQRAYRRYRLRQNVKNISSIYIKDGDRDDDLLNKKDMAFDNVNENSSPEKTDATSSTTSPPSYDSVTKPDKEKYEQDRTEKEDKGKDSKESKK

## COCCOC(=O)C1=C(C)NC(C)=C(C(=O)OC/C=C/c2ccccc2)C1c1cccc([N+](=O)[O-])c1 (centres unmarked) [Cilnidipine, cilnidipine]
[1]; mean (±SD)
  AUCinf: 41.2 (±20.4) ng*h/mL
  AUClast: 37.0 (±17.9) ng*hr/mL
  CL/F: 304.7(±147.5) L/hr
  Cmax: 8.9 (±4.2) ng/mL
  T1/2: 7.5(±1.0) hr
[1]; median (minimum-maximum)
  Tmax: 2 (0.5-5) hr
Participants with SSc-RP; 10 mg and 20 mg, alone or in combination with tadalafil
  tolerability: well tolerated; also recorded: good tolerability
Participants with SSc-RP; Cilnidipine 20 mg column (n = 8)
  Safety: withdrawals: 1 withdrawal
Participants with SSc-RP; Cilnidipine 20 mg, HA-mild (n = 8)
  Safety: number of AE: 1AE (HA-mild;
Participants with SSc-RP; Pooled Cilnidipine, in combo with T (n = 9)
  Safety: number of AE: 1AE (in combo
Participants with SSc-RP
  overall adverse event rate: 17%
Participants with SSc-RP; listed as Profervia
  overall adverse event rate: 17% adverse
Participants with SSc-RP; any dose of cilnidipine (n=17)
  treatment discontinuations due to intolerance: no treatment discontinuations due to intolerance
Participants with SSc-RP; patients treated with cilnidipine
  severity grade of adverse events: only Grade 1 Adverse Events (AEs) were reported; also recorded: only mild (Grade 1) adverse events occurred
Nav 1.7 sodium channel
  inhibition of Nav 1.7 compared to an 1800 mg dose of gabapentin: > 6 fold
[2]
  protein binding in plasma: 98%
[3]
  time to achieve maximal plasma concentration (Tmax): ≤ 2 h
